Source: patent US20140066444A1, “Method of Treating Cancer” (Exelixis, Inc., priority 2010, published 2014)

Tests used:
[1] = tested on: metastatic castration-resistant prostate cancer (CRPC) with bone metastases; experiment: case studies: metastatic CRPC patients treated with Compound 1; type: in vivo, human; conditions: three metastatic CRPC patients
Source text: Bone metastases are present in 90% of patients with castration-resistant prostate cancer (CRPC), causing significant morbidity and mortality.

[2] = oral bioavailability; conditions: in vivo
[3] = tested on: endothelial cells and tumor cells; experiment: induction of apoptosis
[4] = tested on: xenograft tumor models; experiment: xenograft tumor models
[5] = tested on: MET and VEGFR signaling; experiment: suppression of MET and VEGFR signaling
[6] = tested on: pancreatic neuroendocrine tumor model; experiment: murine pancreatic neuroendocrine tumor model
[7] = gravimetric vapor sorption (GVS) study; type: physicochemical; conditions: 25° C. and 90% humidity
Experimental: A gravimetric vapor sorption (GVS) study was run using a standard procedure. Samples were run on a dynamic vapor sorption analyzer (Surface Measurement Systems) running DVSCFR software. Sample sizes were typically 10 mg. A moisture adsorption desorption isotherm was performed as outlined below. The standard isotherm experiment, performed at 25° C., is a two-cycle run, starting at 40% RH, increasing humidity to 90% RH, decreasing humidity to 0% RH, increasing humidity again to 90% RH, and finally decreasing humidity to 0% RH in 10% RH intervals.

Compound | bone lesions [1] | bone pain [1] | measurable disease [1] | total serum alkaline phosphatase (tALP) levels [1] | oral bioavailability [2] | apoptosis of endothelial cells and tumor cells [3] | tumor regression [4] | MET and VEGFR signaling [5] | overall survival [6] | tumor invasiveness and metastasis [6] | weight gain (GVS) [7] [%]
COc1cc2c(Oc3ccc(NC(=O)C4(C(=O)Nc5ccc(F)cc5)CC4)cc3F)ccnc2cc1OCCCN1CCOCC1 [Compound 1] | near complete resolution of bone lesions | marked reduction | reduction in measurable disease | marked reduction | orally bioavailable | rapidly induces apoptosis | causes tumor regression | suppresses | substantially improves | significantly reduces | 
COc1cc2c(Oc3ccc(NC(=O)C4(C(=O)Nc5ccc(F)cc5)CC4)cc3F)ccnc2cc1OCCCN1CCOCC1.O [crystalline Compound 1, N-[3-fluoro-4-({6-(methyloxy)-7-[(3-morpholin-4-ylpropyl)oxy]quinolin-4-yl}oxy)phenyl]-N′-(4-fluorophenyl)cyclopropane-1,1-dicarboxamide crystalline hydrate] |  |  |  |  |  |  |  |  |  |  | 2.5
